What was measured:
[1] = target: Carbonic anhydrase 14 (Homo sapiens, UniProt Q9ULX7)
[2] = target: Carbonic anhydrase 2 (Homo sapiens, UniProt P00918)
[3] = target: Carbonic anhydrase 1 (Homo sapiens, UniProt P00915)
[4] = target: Carbonic anhydrase 12 (Homo sapiens, UniProt O43570)
[5] = Solubility of the compound in water; type: physicochemical
[6] = target: Carbonic anhydrase 9 (Homo sapiens, UniProt Q16790)

Chain of Carbonic anhydrase 1 (P00915 whole entry): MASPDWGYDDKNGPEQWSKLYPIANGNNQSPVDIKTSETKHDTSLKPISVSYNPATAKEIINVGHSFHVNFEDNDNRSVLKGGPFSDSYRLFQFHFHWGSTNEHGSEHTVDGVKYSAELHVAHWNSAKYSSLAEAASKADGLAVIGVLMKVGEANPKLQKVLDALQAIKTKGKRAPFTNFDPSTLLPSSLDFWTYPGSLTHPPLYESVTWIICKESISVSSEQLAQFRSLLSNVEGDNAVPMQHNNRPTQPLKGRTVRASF
Chain of Carbonic anhydrase 14 (Q9ULX7 whole entry): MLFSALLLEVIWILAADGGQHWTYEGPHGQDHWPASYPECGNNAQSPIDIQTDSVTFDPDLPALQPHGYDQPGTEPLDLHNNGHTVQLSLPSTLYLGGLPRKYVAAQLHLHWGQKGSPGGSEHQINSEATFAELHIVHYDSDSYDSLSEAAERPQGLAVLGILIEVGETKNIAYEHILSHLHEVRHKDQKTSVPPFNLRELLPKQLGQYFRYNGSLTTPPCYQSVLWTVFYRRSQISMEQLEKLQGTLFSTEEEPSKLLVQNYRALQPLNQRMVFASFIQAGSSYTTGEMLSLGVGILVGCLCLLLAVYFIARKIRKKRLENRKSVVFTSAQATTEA
Chain of Carbonic anhydrase 12 (O43570 whole entry): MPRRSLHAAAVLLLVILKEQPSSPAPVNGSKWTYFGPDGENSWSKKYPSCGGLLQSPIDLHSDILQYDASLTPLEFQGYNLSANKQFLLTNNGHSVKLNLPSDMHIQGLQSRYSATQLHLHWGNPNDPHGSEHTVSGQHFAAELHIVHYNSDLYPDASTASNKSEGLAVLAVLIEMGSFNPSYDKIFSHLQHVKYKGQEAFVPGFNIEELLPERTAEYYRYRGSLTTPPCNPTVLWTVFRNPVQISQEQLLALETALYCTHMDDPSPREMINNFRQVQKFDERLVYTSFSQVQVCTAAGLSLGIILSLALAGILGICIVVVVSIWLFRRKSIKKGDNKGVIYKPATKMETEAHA

SMILES | Ki [1] [nM] | Ki [2] [nM] | Ki [3] [nM] | Ki [4] [nM] | solubility [5] [mg/mL] | Ki [6] [nM]
CC(=O)OC[C@H]1O[C@@H](NC(=S)Nc2ccc(S(N)(=O)=O)cc2)[C@H](OC(C)=O)[C@@H](OC(C)=O)[C@@H]1OC(C)=O | 8.3 | 7 | 4930 | 7.2 | – | –
NS(=O)(=O)c1ccc(NC(=S)N[C@@H]2O[C@H](CO)[C@H](O)[C@H](O)[C@H]2O)cc1 | 125 | 222 | 6840 | 20.1 | > 20 | –
CC(=O)OC[C@H]1O[C@@H](NC(=S)NCc2ccc(S(N)(=O)=O)cc2)[C@H](OC(C)=O)[C@@H](OC(C)=O)[C@H]1OC(C)=O | 807 | 11.9 | 6340 | 100 | – | –
CC(=O)OC[C@H]1O[C@@H](O[C@H]2[C@H](OC(C)=O)[C@@H](OC(C)=O)[C@H](NC(=S)Nc3ccc(S(N)(=O)=O)cc3)O[C@@H]2COC(C)=O)[C@H](OC(C)=O)[C@@H](OC(C)=O)[C@H]1OC(C)=O | 8.6 | 7.6 | 100 | 8.2 | – | –
NS(=O)(=O)c1ccc(CNC(=S)N[C@@H]2O[C@H](CO)[C@@H](O[C@@H]3O[C@H](CO)[C@H](O)[C@H](O)[C@H]3O)[C@H](O)[C@H]2O)cc1 | 44 | 105 | 4060 | 7.9 | > 20 | 8.3
NS(=O)(=O)c1ccc(CCNC(=S)N[C@@H]2O[C@H](CO)[C@@H](O[C@H]3O[C@H](CO)[C@@H](O)[C@H](O)[C@H]3O)[C@H](O)[C@H]2O)cc1 | 7.8 | 271 | 4260 | 9.8 | > 20 | 2.1
NS(=O)(=O)c1ccc(C(=O)NNC(=S)N[C@@H]2O[C@H](CO)[C@@H](O[C@@H]3O[C@H](CO)[C@H](O)[C@H](O)[C@H]3O)[C@H](O)[C@H]2O)cc1 | 8.5 | 7.4 | – | 8.7 | > 20 | –
CC(=O)OC[C@H]1O[C@@H](NC(=S)NNC(=O)c2ccc(S(N)(=O)=O)cc2)[C@H](OC(C)=O)[C@@H](OC(C)=O)[C@@H]1OC(C)=O | 10.3 | 10 | 3770 | 7.3 | – | 8.7
NS(=O)(=O)c1ccc(NC(=S)N[C@@H]2O[C@H](CO)[C@@H](O[C@H]3O[C@H](CO)[C@@H](O)[C@H](O)[C@H]3O)[C@H](O)[C@H]2O)cc1 | 9.8 | 7.5 | 7920 | 300 | > 20 | 8.4
CC(=O)OC[C@H]1O[C@@H](NC(=S)NCc2ccc(S(N)(=O)=O)cc2)[C@H](OC(C)=O)[C@@H](OC(C)=O)[C@@H]1O[C@H]1O[C@H](COC(C)=O)[C@@H](OC(C)=O)[C@H](OC(C)=O)[C@H]1OC(C)=O | 8.6 | 7.3 | 4570 | 8.4 | – | –
CC(=O)OC[C@H]1O[C@@H](NC(=S)NCCc2ccc(S(N)(=O)=O)cc2)[C@H](OC(C)=O)[C@@H](OC(C)=O)[C@@H]1O[C@H]1O[C@H](COC(C)=O)[C@@H](OC(C)=O)[C@H](OC(C)=O)[C@H]1OC(C)=O | 8.7 | 9.8 | 3720 | 8.4 | – | 122
NS(=O)(=O)c1ccc(C(=O)NNC(=S)N[C@@H]2O[C@H](CO)[C@@H](O)[C@H](O)[C@H]2O)cc1 | 8 | 525 | 7880 | 8.6 | > 20 | –
NS(=O)(=O)c1ccc(CNC(=S)N[C@@H]2O[C@H](CO)[C@@H](O[C@H]3O[C@H](CO)[C@@H](O)[C@H](O)[C@H]3O)[C@H](O)[C@H]2O)cc1 | 8.5 | 376 | 6300 | 12.5 | > 20 | 8.4
CC(=O)OC[C@H]1O[C@@H](O[C@H]2[C@H](OC(C)=O)[C@@H](OC(C)=O)[C@H](NC(=S)NCc3ccc(S(N)(=O)=O)cc3)O[C@@H]2COC(C)=O)[C@H](OC(C)=O)[C@@H](OC(C)=O)[C@H]1OC(C)=O | 8.5 | 390 | 110 | 7.4 | – | –
NS(=O)(=O)c1ccc(CNC(=S)N[C@@H]2O[C@H](CO)[C@@H](O)[C@H](O)[C@H]2O)cc1 | 16 | 377 | 7500 | 8.2 | > 20 | –
NS(=O)(=O)c1ccc(CNC(=S)N[C@@H]2O[C@H](CO)[C@H](O)[C@H](O)[C@H]2O)cc1 | 129 | 60 | 6420 | 111 | > 20 | 6.9

SMILES | Ki [1] [nM] | Ki [2] [nM] | Ki [3] [nM] | Ki [4] [nM] | solubility [5] [mg/mL] | Ki [6] [nM]
CC(=O)OC[C@H]1O[C@@H](NC(=S)Nc2ccc(S(N)(=O)=O)cc2)[C@H](OC(C)=O)[C@@H](OC(C)=O)[C@H]1OC(C)=O | 126 | 524 | 6710 | 45.6 | – | –
NS(=O)(=O)c1ccc(C(=O)NNC(=S)N[C@@H]2O[C@H](CO)[C@@H](O[C@H]3O[C@H](CO)[C@@H](O)[C@H](O)[C@H]3O)[C@H](O)[C@H]2O)cc1 | 8.6 | 109 | – | 8.2 | > 20 | –
CC(=O)OC[C@H]1O[C@@H](NC(=S)NCCc2ccc(S(N)(=O)=O)cc2)[C@H](OC(C)=O)[C@@H](OC(C)=O)[C@@H]1OC(C)=O | 8.8 | 7.3 | 5510 | 8.9 | – | 451
CC(=O)OC[C@H]1O[C@@H](O[C@H]2[C@H](OC(C)=O)[C@@H](OC(C)=O)[C@H](NC(=S)NCCc3ccc(S(N)(=O)=O)cc3)O[C@@H]2COC(C)=O)[C@H](OC(C)=O)[C@@H](OC(C)=O)[C@H]1OC(C)=O | 9.1 | 8.7 | 3770 | 48.1 | – | 362
NS(=O)(=O)c1ccc(C(=O)NNC(=S)N[C@@H]2O[C@H](CO)[C@H](O)[C@H](O)[C@H]2O)cc1 | 8.2 | 344 | 4040 | 8.5 | > 20 | –
CC(=O)OC[C@H]1O[C@@H](O[C@H]2[C@H](OC(C)=O)[C@@H](OC(C)=O)[C@H](NC(=S)NNC(=O)c3ccc(S(N)(=O)=O)cc3)O[C@@H]2COC(C)=O)[C@H](OC(C)=O)[C@@H](OC(C)=O)[C@H]1OC(C)=O | 10.6 | 6.4 | 5900 | 8.1 | – | –
NS(=O)(=O)c1ccc(CCNC(=S)N[C@@H]2O[C@H](CO)[C@@H](O[C@@H]3O[C@H](CO)[C@H](O)[C@H](O)[C@H]3O)[C@H](O)[C@H]2O)cc1 | 8.4 | 9 | 100 | 13.5 | > 20 | 8.9
CC(=O)OC[C@H]1O[C@@H](NC(=S)NCc2ccc(S(N)(=O)=O)cc2)[C@H](OC(C)=O)[C@@H](OC(C)=O)[C@@H]1OC(C)=O | 8.5 | 7.8 | 100 | 7.5 | – | –
CC(=O)OC[C@H]1O[C@@H](NC(=S)NNC(=O)c2ccc(S(N)(=O)=O)cc2)[C@H](OC(C)=O)[C@@H](OC(C)=O)[C@H]1OC(C)=O | 10.7 | 8.6 | 6410 | 7.8 | – | 3.3
CC(=O)OC[C@H]1O[C@@H](NC(=S)NCCc2ccc(S(N)(=O)=O)cc2)[C@H](OC(C)=O)[C@@H](OC(C)=O)[C@H]1OC(C)=O | 8.7 | 297 | 100 | 8.8 | – | 433
CC(=O)OC[C@H]1O[C@@H](NC(=S)NNC(=O)c2ccc(S(N)(=O)=O)cc2)[C@H](OC(C)=O)[C@@H](OC(C)=O)[C@@H]1O[C@H]1O[C@H](COC(C)=O)[C@@H](OC(C)=O)[C@H](OC(C)=O)[C@H]1OC(C)=O | 10.5 | 10.2 | 2940 | 7.6 | – | –
NS(=O)(=O)c1ccc(CCNC(=S)N[C@@H]2O[C@H](CO)[C@H](O)[C@H](O)[C@H]2O)cc1 | 108 | 9.3 | 5790 | 10.2 | > 20 | 2.8
NS(=O)(=O)c1ccc(CCNC(=S)N[C@@H]2O[C@H](CO)[C@@H](O)[C@H](O)[C@H]2O)cc1 | 8 | 108 | 9 | 9.7 | > 20 | 8.7
CC(=O)OC[C@H]1O[C@@H](NC(=S)Nc2ccc(S(N)(=O)=O)cc2)[C@H](OC(C)=O)[C@@H](OC(C)=O)[C@@H]1O[C@H]1O[C@H](COC(C)=O)[C@@H](OC(C)=O)[C@H](OC(C)=O)[C@H]1OC(C)=O | 7.9 | 539 | 6040 | 10.1 | – | –
NS(=O)(=O)c1ccc(NC(=S)N[C@@H]2O[C@H](CO)[C@@H](O[C@@H]3O[C@H](CO)[C@H](O)[C@H](O)[C@H]3O)[C@H](O)[C@H]2O)cc1 | 55 | 6.9 | 7980 | 81 | > 20 | 258
NS(=O)(=O)c1ccc(NC(=S)N[C@@H]2O[C@H](CO)[C@@H](O)[C@H](O)[C@H]2O)cc1 | 41 | 7 | 7680 | 8.2 | > 20 | 282

Reference: ChEMBL document CHEMBL1955849, “Design and synthesis of thiourea compounds that inhibit transmembrane anchored carbonic anhydrases” (Bioorg Med Chem, 2012)
